Patent publication US20250135012A1, “DENDRIMER CONJUGATES OF SMALL MOLECULE BIOLOGICS FOR INTRACELLULAR DELIVERY” (The Johns Hopkins University, priority 2021, published 2025)

Tests used:
VEGF-A [1] = experiment: Choroid VEGF-A mRNA by PCR, CNV mouse model; type: in vivo; conditions: day 14
Method: (§1) For PCR, choroids were immersed in TRIzol, homogenized with steel beads, and filtered through Corning COSTAR SPIN-X® centrifuge tube filters (Sigma-Aldrich) to remove tissue solids. The RNA was isolated following the previously described protocol and the RNA concentration was determined through Nanodrop. Equivalent amounts of RNA were converted to complementary DNA (cDNA) and analyzed with Fast SYBR Green reagent through the STEP ONE PCR® system.

VEGF-A [2] = experiment: Choroid VEGF-A protein by ELISA, CNV mouse model; type: in vivo
Method: Eyes were dissected immediately after enucleation without fixation. The choroid was collected and stored at −80° C. prior to analysis. For ELISA analysis, choroids were immersed in T-PER protein extraction buffer (Thermo Fisher Scientific) and homogenized with 0.9-2.0 mm stainless steel beads on a Bullet Blender Storm tissue homogenizer (Next Advantage Inc., Averill Park, NY). The supernatant was centrifuged to collect the aqueous solution. The samples were stored in −80° C. and used without further processing for ELISA detection of VEGF-A levels.

TNFα [3] = experiment: Choroid TNFα mRNA by PCR, CNV mouse model; type: in vivo
Method: as §1

TNFα [4] = experiment: TNFα mRNA in LPS stimulated BV2 cells (PCR); type: cell-based, murine; conditions: BV2, LPS 100 ng/mL, 24 h, 1-100 nM
Method: (§2) HMEC and BV2 samples were then collected with TRIzol for polymerase chain reaction (PCR) analysis. In brief, samples were subjected to a freeze-thaw cycle with TRIzol followed by the addition of 200 μL of chloroform (Thermo Fisher Scientific). The samples were shaken and placed in ice for 15 min. To aid in the separation of aqueous and organic layers, samples were centrifuged for 15 min at 15,000 g. The aqueous solution was collected and isopropanol was added to each sample (500 μL; Thermo Fisher Scientific). Samples were centrifuged again for 15 min at 15,000 g then washed with 75% ethanol in DEPC-treated water.
(§3) RNA content was determined through Nanodrop and equivalent amount of RNA from each sample were converted to complementary DNA (Applied Biosystems, Foster City, CA). PCR analysis was performed on STEP ONE PLUS® real-time PCR system (Applied Biosystems) with Fast SYBR Green reagent. PCR primers for VEGF-A, GAPDH, and IL-1β were obtained from Bio-Rad Laboratories (Hercules, CA). Primers were purchased from Integrated DNA Technologies (Coralville, IA). Primers for TNFα were: […]

IL-1β = IL-1β mRNA in LPS stimulated BV2 cells (PCR); type: cell-based, murine
Method: as §2, §3

HMECs = experiment: HMEC Matrigel tube formation assay; type: cell-based, human; conditions: 24 h pretreatment, imaged after 7 h on Matrigel
Method: HMECs were seeded onto 12-well plates at a density of 1×10^5 cells/mL and allowed to grow to confluency. […] After 24 h of treatment, cells were collected by detaching them with trypsin, collecting the resulting cell suspension, and centrifuging at 300 g for 5 min. Tube formation assay was performed according to protocol provided by Lonza.
In brief, on the day of the assay, 96-well plates were coated with 75 μL of phenol-free […]® and left to polymerize at 37° C. for 20 min. The cell pellets were re-suspended with 300 μL of media and 75 μL of the solution (400,000 cells/mL) were seeded onto each […]®-coated wells.

[5] = tested on: choroidal neovascularization (CNV); experiment: Laser-induced CNV mouse model, CNV area; type: in vivo, C57BL/6J mice
Method: Prior to laser induction of CNV, a cocktail of ketamine/xylazine/acepromazine (100 mg/kg of ketamine, 20 mg/kg of xylazine, and 3 mg/kg of acepromazine) was injected intraperitoneally to anesthetize the animals. Animals were then treated with a drop of topical 2.5% Phyenylephrine Hydrochloride ophthalmic solution followed by 0.5% Tetracaine hydrochloride ophthalmic solution for pupil dilation. A Micron III SLO (Phoenix Research Labs, Pleasanton, CA) was used to image the fundus and focus the attached laser system (Phoenix Research Labs). Four equidistantly placed laser burns in the Bruch's membrane were created with a laser power setting of 240 mW at a duration of 70 ms.
In brief, a 30G insulin syringe was used to create an injection opening in the sclera. A 10 μL Hamilton syringe was then used to administer the treatment directly into the vitreous cavity. After treatment, animals were given topical ocular antibiotic (gentamicin and prednisolone acetate ophthalmic ointment) to prevent infection. Animals were then sacrificed at set time points post treatment (7 and 14 days) for imaging and biochemical analysis.
(§4) At set time points, animals were sacrificed and the enucleated eyes fixed in 4% paraformaldehyde for 1 h. The choroid and retina are then dissected out. Tissues were blocked and permeabilized through 2 h incubation with a solution of 5% normal goat serum, 0.3% Triton X-100, and 1% bovine serum albumin at room temperature under constant agitation. To visualize macrophage, tissues were stained with anti-Iba1 antibody (1:100; FUJIFILM® Wako Chemicals, Osaka, Japan) followed by ALEXA FLUOR® 405-labeled goat anti-rabbit secondary antibody (1:200; Abcam, MA, USA). Blood vessels were stained with FITC-labeled isolectin (GS IB4) (1:100; Life Technologies, Eugene, OR, USA).
(§5) Flat-mounts were created by making four radial incisions on the tissue and mounting the relaxed tissues on coverslips. CNV formation was imaged with confocal 710 microscope (Carl Zeiss, Oberkochen, Germany) for biodistribution, and with an Axiovert phase contrast microscope for area calculation.

[6] = tested on: CNV area (macrophages, endothelial cells); experiment: In vivo distribution and colocalization, CNV mouse model
Method: For biodistribution studies, 1 μg of Cy5-D-miR126-Cy3 or miR-126-Cy3 on a nucleic acid basis (at concentration of 1 μg/μL) were administered to the animals in accordance to the above steps. Tissues were extracted at set time points (1, 3, 5, 7, 14 days post-treatment).
as §4, §5
To assess uptake and distribution, Cy3 labeled miR-126 and dually labeled Cy5-D-miR126-Cy3 were injected into laser CNV mouse models and choroids were collected at 1, 3, 5, 7, 14 days post-injection. Iba1 staining was used to visualize the intracellular environment of macrophage, and isolectin GS-IB4 was used to stain for both blood vessels and macrophages.

VEGF-A [7] = experiment: VEGF-A mRNA in HMECs (PCR); type: cell-based, human
Method: as §2, §3

[8] = 24 h post-injection (earliest time point)

## miR-126: sense 5′-UCGUACCGUGAGUAAUAAUGCG-3′ (SEQ ID NO: 4); antisense 5′-CGCAUUAUUACUCACGGUACGA-[Thiol C6 S—S]-3′ (SEQ ID NO: 5) (3' thiol C6 S-S on antisense; misc_feature 22 3' end linked to Thiol-Modifier C6 S-S)
VEGF-A [1]
  VEGF-A mRNA levels: still reduced
VEGF-A [2]; day 7
  VEGF-A protein vs untreated: significant decrease
VEGF-A [2]; day 14
  VEGF levels, treated vs untreated animals: no differences
TNFα [3]; 7 days, not statistically significant
  TNFα mRNA: elevated
TNFα [3]; 14 days
  TNFα mRNA: suppressed TNFα
TNFα [4]
  knockdown of TNFα: ~50%
IL-1β
  concentration with the higher/high IL-1β knockdown effect: 10 nM
IL-1β; 1-100 nM
  dose response of IL-1β knockdown: inverse dose response
HMECs
  network formation: disruption of network formation
[5]; day 7, one intravitreal dose on day of CNV induction
  CNV area: ~8,000 μm^2
[5]; day 14
  CNV area decrease (significance): insignificant decrease
  reduction of CNV area compared to the control: ~10%
[5]; day 14, one intravitreal dose
  CNV area: ~8,000 μm^2
[6]; [8]
  fraction of Cy3 (miR-126) signal colocalized with Iba1 (macrophages): around 2%
  fraction of signal in combined macrophage/endothelial population (isolectin GS-IB4): around 3%
[6]; intravitreal, confocal microscopy
  time in the CNV target area: up to 7 days
[6]; peak at 5 days
  fraction of signal colocalized within macrophages: ~10%
  fraction of signal within combined macrophage/endothelial population: ~15%
VEGF-A [7]
  doses repressing VEGF-A at the same level as lower doses of D-miR126: 10 to 100 nM
VEGF-A [7]; 24 h, full-serum
  knockdown of VEGF-A production: ~20%
